Several values for one entry are separate records, joined by “and”; a condition that tells them apart may be missing. Identical values can stand only once. Toxic doses and inconclusive results are not listed. Rule for the calls: active = survival T/C of 150% or more; inactive = T/C below 125% in these data.
Tested on: CD2F1 mice, L1210 leukemia ip, survival T/C
Assay: NCI In Vivo Anticancer Drug Screen. Data for tumor model L1210 Leukemia (intraperitoneal) in CD2F1 (CDF1) mice
Settings: endpoint: mean survival time, higher = longer survival
Method in brief: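 Read-out first: treated-group measurement over vehicle-control measurement, expressed as a ratio. Animals bore a transplanted tumor line and were dosed with compound or vehicle.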

[1] = dose: 100.0 mg/kg/injection, schedule: Q04DX003 (ip), vehicle: saline with Tween-80
[2] = dose: 400.0 mg/kg/injection, schedule: Q04DX003 (ip), vehicle: saline with Tween-80
[3] = dose: 200.0 mg/kg/injection, schedule: Q04DX003 (ip), vehicle: saline with Tween-80

Measured: T/C

CC(CC(=O)Nc1ccc(S(=O)(=O)F)cc1)c1ccc(N2C(N)=NC(N)=NC2(C)C)cc1 (configuration not stated)
inactive: dose: 12.5 mg/kg/injection, schedule: Q01DX009 (ip), vehicle: saline 109 % of control | dose: 25.0 mg/kg/injection, schedule: Q01DX009 (ip), vehicle: saline 109 % of control | dose: 50.0 mg/kg/injection, schedule: Q01DX009 (ip), vehicle: saline 113 % of control | dose: 100.0 mg/kg/injection, schedule: Q01DX009 (ip), vehicle: saline 113 % of control | dose: 100.0 mg/kg/injection, schedule: Q#A X018 (ip), vehicle: saline 116 % of control | dose: 150.0 mg/kg/injection, schedule: Q#A X018 (ip), vehicle: saline 119 % of control | dose: 200.0 mg/kg/injection, schedule: Q01DX009 (ip), vehicle: saline 113 % of control and 121 % of control | dose: 300.0 mg/kg/injection, schedule: Q01DX009 (ip), vehicle: saline 118 % of control | dose: 400.0 mg/kg/injection, schedule: Q01DX009 (ip), vehicle: saline 124 % of control

Cc1ccc(OCc2c(COc3ccc(Cl)cc3)sc3ccc(Cl)cc23)cc1
inactive: [1] 96 % of control | [2] 88 % of control

CC1CN(C(=N)C#N)C(C)CN1C(=N)C#N (configuration not stated)
inactive: dose: 6.25 mg/kg/injection, schedule: Q01DX009 (ip), vehicle: saline with Tween-80 96 % of control | dose: 12.5 mg/kg/injection, schedule: Q01DX009 (ip), vehicle: saline with Tween-80 102 % of control | dose: 25.0 mg/kg/injection, schedule: Q01DX009 (ip), vehicle: saline with Tween-80 105 % of control

NC(N)=N/N=C/c1ccc(Cl)cc1
inactive: dose: 20.0 mg/kg/injection, schedule: Q01DX009 (ip), vehicle: Klucel (hydroxypropylcellulose) (HPC) 100 % of control | dose: 40.0 mg/kg/injection, schedule: Q01DX009 (ip), vehicle: Klucel (hydroxypropylcellulose) (HPC) 96 % of control

Clc1cc2ccccc2c(Cl)n1
inactive: dose: 100.0 mg/kg/injection, schedule: Q01DX001 (ip), vehicle: saline with Tween-80 92 % of control | dose: 200.0 mg/kg/injection, schedule: Q01DX001 (ip), vehicle: saline with Tween-80 89 % of control

Nc1ccnn1CCO
inactive: dose: 100.0 mg/kg/injection, schedule: Q04DX003 (ip), vehicle: water 102 % of control | dose: 200.0 mg/kg/injection, schedule: Q04DX003 (ip), vehicle: water 101 % of control | dose: 400.0 mg/kg/injection, schedule: Q04DX003 (ip), vehicle: water 101 % of control

COC(=O)C1(C)CCCC2(C)C1CCC13C=C(C(C)C)C(CC1C(=O)O)CC23 (configuration not stated)
inactive: [1] 97 % of control | [3] 101 % of control | [2] 93 % of control

Nc1nnnn1-c1ccc(O)cc1
inactive: [1] 104 % of control | [3] 98 % of control | [2] 104 % of control
